Assay results: ChEMBL document CHEMBL5223147, “Discovery of a potent and subtype-selective TYK2 degrader based on an allosteric TYK2 inhibitor” (Bioorg Med Chem Lett, 2023)
Calls of active or inactive are those of the source. The rule behind the calls is not given here.

How the values were obtained:
Type in all cases: cell-based
[1] = target: T1, Non-receptor tyrosine-protein kinase TYK2 (Homo sapiens, UniProt P29597); assay: Induction of TYK2 degradation in human Jurkat cells at 10 uM incubated for 24 hrs by Western blot analysis
T1 sequence (P29597 whole entry): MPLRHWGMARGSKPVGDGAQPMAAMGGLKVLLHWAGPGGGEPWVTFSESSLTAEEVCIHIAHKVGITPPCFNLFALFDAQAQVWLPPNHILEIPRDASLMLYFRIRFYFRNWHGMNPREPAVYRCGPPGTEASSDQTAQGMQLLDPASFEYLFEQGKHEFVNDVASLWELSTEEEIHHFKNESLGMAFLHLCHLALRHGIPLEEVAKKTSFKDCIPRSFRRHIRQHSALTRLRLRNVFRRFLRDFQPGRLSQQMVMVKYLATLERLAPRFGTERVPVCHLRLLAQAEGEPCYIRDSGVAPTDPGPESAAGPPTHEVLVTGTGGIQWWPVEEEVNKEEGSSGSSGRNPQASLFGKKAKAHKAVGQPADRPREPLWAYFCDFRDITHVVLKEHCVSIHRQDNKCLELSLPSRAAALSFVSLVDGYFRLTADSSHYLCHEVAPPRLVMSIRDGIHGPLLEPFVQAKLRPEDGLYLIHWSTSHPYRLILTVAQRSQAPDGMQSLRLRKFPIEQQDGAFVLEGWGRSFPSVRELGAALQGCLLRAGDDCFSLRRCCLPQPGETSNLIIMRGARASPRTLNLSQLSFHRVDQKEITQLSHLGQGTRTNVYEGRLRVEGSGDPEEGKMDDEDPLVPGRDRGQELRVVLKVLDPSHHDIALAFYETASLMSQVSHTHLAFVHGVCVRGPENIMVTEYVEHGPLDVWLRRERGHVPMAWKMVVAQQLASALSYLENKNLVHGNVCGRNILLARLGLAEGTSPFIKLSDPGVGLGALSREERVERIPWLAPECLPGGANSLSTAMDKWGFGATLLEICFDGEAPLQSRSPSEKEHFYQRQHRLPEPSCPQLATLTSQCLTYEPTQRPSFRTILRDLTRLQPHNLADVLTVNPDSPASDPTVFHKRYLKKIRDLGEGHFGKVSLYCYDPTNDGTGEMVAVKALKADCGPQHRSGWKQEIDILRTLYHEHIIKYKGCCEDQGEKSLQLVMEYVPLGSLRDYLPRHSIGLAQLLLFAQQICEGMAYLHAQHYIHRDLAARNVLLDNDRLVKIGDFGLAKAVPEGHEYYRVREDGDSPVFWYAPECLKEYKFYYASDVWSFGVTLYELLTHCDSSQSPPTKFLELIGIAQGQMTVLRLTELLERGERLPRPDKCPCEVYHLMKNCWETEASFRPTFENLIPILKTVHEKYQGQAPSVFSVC

[2] = target: T2, Tyrosine-protein kinase JAK1 (Homo sapiens, UniProt P23458); assay: Induction of JAK1 degradation in human Jurkat cells at 1 uM incubated for 6 hrs by Western blot analysis
T2 sequence (P23458 whole entry): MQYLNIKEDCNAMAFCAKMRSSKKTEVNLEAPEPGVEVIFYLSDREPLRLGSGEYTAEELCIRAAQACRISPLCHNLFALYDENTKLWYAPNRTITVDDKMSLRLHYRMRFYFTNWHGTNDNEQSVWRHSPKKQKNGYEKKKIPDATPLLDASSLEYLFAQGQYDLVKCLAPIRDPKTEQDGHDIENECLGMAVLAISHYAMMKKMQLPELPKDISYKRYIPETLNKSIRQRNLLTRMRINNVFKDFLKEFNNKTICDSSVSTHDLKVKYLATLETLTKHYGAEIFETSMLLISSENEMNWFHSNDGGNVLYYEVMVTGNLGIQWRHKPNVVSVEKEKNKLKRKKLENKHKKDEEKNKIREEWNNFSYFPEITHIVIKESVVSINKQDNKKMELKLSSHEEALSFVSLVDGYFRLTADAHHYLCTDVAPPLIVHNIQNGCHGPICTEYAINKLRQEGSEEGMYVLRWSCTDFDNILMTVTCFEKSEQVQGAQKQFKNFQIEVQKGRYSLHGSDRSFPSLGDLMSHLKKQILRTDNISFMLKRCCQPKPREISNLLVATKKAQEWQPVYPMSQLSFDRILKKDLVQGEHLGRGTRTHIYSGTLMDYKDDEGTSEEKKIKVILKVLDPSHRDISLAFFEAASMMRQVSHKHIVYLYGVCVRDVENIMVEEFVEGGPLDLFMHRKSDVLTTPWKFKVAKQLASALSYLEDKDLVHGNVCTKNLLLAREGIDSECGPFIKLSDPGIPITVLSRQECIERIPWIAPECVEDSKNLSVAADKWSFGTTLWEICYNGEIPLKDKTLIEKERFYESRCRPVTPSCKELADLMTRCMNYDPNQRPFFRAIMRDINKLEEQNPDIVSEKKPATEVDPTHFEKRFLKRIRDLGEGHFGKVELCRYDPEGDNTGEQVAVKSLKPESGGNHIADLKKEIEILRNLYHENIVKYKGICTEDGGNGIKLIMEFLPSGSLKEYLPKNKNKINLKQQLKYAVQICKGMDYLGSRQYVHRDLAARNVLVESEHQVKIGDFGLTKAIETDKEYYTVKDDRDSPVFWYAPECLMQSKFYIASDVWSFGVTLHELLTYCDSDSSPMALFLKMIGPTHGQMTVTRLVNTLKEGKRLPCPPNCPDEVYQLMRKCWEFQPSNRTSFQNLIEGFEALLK

[3] = target: T2, Tyrosine-protein kinase JAK1; assay: Induction of JAK1 degradation in human Jurkat cells incubated for 24 hrs
[4] = target: T2, Tyrosine-protein kinase JAK1; assay: Induction of JAK1 degradation in human Jurkat cells at 1 uM incubated for 24 hrs relative to control
[5] = target: T1, Non-receptor tyrosine-protein kinase TYK2; assay: Induction of TYK2 degradation in human Jurkat cells incubated for 24 hrs
[6] = target: T1, Non-receptor tyrosine-protein kinase TYK2; assay: Induction of TYK2 degradation in human Jurkat cells at 1 uM incubated for 24 hrs relative to control
[7] = target: T3, Tyrosine-protein kinase JAK3 (Homo sapiens) (UniProt P52333); assay: Induction of JAK3 degradation in human Jurkat cells at 1 uM incubated for 6 hrs by Western blot analysis
T3 sequence (whole entry): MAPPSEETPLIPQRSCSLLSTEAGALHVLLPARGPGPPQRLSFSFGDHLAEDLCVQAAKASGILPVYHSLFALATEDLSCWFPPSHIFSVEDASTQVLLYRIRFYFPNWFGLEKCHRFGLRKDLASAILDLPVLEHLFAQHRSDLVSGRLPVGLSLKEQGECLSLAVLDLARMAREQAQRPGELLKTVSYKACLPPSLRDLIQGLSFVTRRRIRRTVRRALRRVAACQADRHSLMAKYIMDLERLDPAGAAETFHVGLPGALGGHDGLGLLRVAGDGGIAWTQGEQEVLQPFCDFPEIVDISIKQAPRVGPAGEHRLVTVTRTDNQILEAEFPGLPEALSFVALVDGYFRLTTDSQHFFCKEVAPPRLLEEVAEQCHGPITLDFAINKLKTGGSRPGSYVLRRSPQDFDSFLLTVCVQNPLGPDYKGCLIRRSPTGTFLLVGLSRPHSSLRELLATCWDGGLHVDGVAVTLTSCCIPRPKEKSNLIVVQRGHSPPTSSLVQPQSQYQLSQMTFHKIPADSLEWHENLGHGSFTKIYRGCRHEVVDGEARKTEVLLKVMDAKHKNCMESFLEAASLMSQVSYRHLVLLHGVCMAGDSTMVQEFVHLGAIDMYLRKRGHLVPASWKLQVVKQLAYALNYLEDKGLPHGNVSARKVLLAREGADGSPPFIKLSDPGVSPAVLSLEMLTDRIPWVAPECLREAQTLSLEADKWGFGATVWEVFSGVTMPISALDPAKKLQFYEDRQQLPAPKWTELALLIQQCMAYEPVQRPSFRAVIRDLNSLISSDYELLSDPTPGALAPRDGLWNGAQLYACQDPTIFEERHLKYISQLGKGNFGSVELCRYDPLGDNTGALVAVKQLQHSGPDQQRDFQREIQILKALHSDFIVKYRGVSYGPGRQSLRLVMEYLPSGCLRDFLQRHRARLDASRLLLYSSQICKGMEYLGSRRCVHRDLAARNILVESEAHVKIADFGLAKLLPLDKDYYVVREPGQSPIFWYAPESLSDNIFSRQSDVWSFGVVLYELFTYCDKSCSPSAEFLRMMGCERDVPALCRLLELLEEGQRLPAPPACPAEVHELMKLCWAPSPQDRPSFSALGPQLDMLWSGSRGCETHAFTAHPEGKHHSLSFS

[8] = target: Tyrosine-protein kinase JAK2 (Homo sapiens) (UniProt O60674); assay: Induction of JAK2 degradation in human Jurkat cells at 1 uM incubated for 6 hrs by Western blot analysis
Tyrosine-protein kinase JAK2 (Homo sapiens), sequence (O60674 whole entry): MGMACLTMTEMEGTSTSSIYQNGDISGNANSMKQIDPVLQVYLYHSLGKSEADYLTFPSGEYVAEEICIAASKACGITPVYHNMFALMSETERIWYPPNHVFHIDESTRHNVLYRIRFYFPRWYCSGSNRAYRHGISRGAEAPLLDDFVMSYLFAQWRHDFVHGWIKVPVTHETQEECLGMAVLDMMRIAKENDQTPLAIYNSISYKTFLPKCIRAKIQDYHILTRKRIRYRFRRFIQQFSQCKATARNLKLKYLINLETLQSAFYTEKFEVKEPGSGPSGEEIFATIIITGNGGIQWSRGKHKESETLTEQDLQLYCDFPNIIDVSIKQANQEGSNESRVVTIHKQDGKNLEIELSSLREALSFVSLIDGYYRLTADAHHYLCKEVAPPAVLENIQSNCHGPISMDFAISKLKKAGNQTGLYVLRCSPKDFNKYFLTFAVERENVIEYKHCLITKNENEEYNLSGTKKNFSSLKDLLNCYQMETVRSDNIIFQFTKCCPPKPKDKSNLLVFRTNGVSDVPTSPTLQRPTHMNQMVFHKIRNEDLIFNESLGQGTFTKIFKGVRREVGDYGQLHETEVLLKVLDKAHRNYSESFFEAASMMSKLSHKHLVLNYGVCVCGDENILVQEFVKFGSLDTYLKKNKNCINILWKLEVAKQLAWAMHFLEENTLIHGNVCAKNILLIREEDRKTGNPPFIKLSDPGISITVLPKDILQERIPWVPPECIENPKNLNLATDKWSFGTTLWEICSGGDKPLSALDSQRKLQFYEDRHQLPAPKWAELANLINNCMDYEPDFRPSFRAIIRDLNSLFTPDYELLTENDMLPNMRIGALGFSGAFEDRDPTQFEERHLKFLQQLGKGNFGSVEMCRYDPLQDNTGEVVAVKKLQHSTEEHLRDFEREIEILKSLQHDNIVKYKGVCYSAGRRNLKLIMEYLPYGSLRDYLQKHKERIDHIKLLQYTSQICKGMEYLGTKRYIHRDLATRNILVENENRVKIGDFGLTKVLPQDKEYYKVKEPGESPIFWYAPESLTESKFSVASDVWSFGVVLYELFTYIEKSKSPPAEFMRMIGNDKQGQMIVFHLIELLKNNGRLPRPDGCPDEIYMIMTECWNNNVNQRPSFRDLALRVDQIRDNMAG

[9] = target: T1, Non-receptor tyrosine-protein kinase TYK2; assay: Induction of TYK2 degradation in human Jurkat cells at 1 uM incubated for 24 hrs in presence of 6-(5-fluoropyridin-2-ylamino)-4-(2-methoxy-3-(methylcarbamoyl)phenylamino)-N-methylnicotinamide by Western blot analysis
[10] = target: T1, Non-receptor tyrosine-protein kinase TYK2; assay: Induction of TYK2 degradation in human Jurkat cells at 100 nM incubated for 24 hrs relative to control
[11] = target: T2, Tyrosine-protein kinase JAK1; assay: Induction of JAK1 degradation in human Jurkat cells at 10 uM incubated for 24 hrs relative to control
[12] = target: T1, Non-receptor tyrosine-protein kinase TYK2; assay: Induction of TYK2 degradation in human Jurkat cells incubated for 24 hrs by Western blot analysis
[13] = target: T1, Non-receptor tyrosine-protein kinase TYK2; assay: Induction of TYK2 degradation in human Jurkat cells assessed as reduction in TYK2 mRNA expression level up to 10 uM incubated for 6 to 24 hrs by quantitative-PCR analysis; conditions: time 6-24 hrs
[14] = target: T1, Non-receptor tyrosine-protein kinase TYK2; assay: Induction of TYK2 degradation in human Jurkat cells at 10 uM incubated for 24 hrs by Western blot analysis relative to control
[15] = target: T1, Non-receptor tyrosine-protein kinase TYK2; assay: Induction of TYK2 degradation in human Jurkat cells at 1 to 10 uM pretreated with MG-132 followed by compound treatment for 24 hrs by Western blot analysis; conditions: dose 1-10 µM
[16] = target: T1, Non-receptor tyrosine-protein kinase TYK2; assay: Induction of TYK2 degradation in human Jurkat cells at 1 uM incubated for 6 hrs by Western blot analysis
[17] = target: T1, Non-receptor tyrosine-protein kinase TYK2; assay: Induction of TYK2 degradation in human Jurkat cells at 1 uM by Western blot analysis; conditions: time 3-24 hrs, TDE = time-dependent effect

CNC(=O)c1cnc(Nc2ccc(F)cn2)cc1Nc1cccc(C(=O)NC)c1OC
Activity [1]: Active

CNC(=O)c1cccc(Nc2cc(Nc3ccc(C(=O)NCCCCCCCCCC(=O)N[C@H](C(=O)N4C[C@H](O)C[C@H]4C(=O)NCc4ccc(-c5scnc5C)cc4)C(C)(C)C)cn3)ncc2C(N)=O)c1OC
Activity [2]: Active | DC50 [3]: 1100 nM | Emax [4]: 49% | DC50 [5]: 23 nM | Emax [6]: 85%

CNC(=O)c1cnc(Nc2ccc(C(=O)NCCCCCCCCCCC(=O)N[C@H](C(=O)N3C[C@H](O)C[C@H]3C(=O)NCc3ccc(-c4scnc4C)cc3)C(C)(C)C)cn2)cc1Nc1cccc(C(=O)NC)c1OC
Activity [2]: inactive | Activity [7]: inactive | Activity [8]: inactive

CNC(=O)c1cnc(Nc2ccc(C(=O)NCCCCCCCC(=O)N[C@H](C(=O)N3C[C@H](O)C[C@H]3C(=O)NCc3ccc(-c4scnc4C)cc3)C(C)(C)C)cn2)cc1Nc1cccc(C(=O)NC)c1OC
Activity [2]: inactive | Activity [7]: inactive | Activity [8]: inactive

CNC(=O)c1cnc(Nc2ccc(C(=O)NCCCC(=O)N[C@H](C(=O)N3C[C@H](O)C[C@H]3C(=O)NCc3ccc(-c4scnc4C)cc3)C(C)(C)C)cn2)cc1Nc1cccc(C(=O)NC)c1OC
Activity [2]: Active | Activity [7]: Active | Activity [8]: Active

Cc1ncsc1-c1ccc(CNC(=O)[C@@H]2C[C@@H](O)CN2C(=O)[C@@H](NC(=O)C2(C#N)CC2)C(C)(C)C)cc1
Activity [9]: inactive | Activity [1]: Active

CNC(=O)c1cnc(Nc2ccc(C(=O)NCCCCCCCCCC(=O)N[C@H](C(=O)N3C[C@H](O)C[C@H]3C(=O)NCc3ccc(-c4scnc4C)cc3)C(C)(C)C)cn2)cc1Nc1cccc(-c2ncn(C)n2)c1OC
Emax [10]: 78% | DC50 [3]: ≥ 10000 nM | DC50 [5]: 14 nM | Activity [8]: Active | Emax [11]: 25%

CNC(=O)c1cnc(Nc2ccc(C(=O)NCCCCCCCCCCCC(=O)N[C@H](C(=O)N3C[C@H](O)C[C@H]3C(=O)NCc3ccc(-c4scnc4C)cc3)C(C)(C)C)cn2)cc1Nc1cccc(C(=O)NC)c1OC
Activity [2]: inactive | Activity [7]: inactive | Activity [8]: inactive

CNC(=O)c1cnc(Nc2ccc(C(=O)NCCCCCC(=O)N[C@H](C(=O)N3C[C@H](O)C[C@H]3C(=O)NCc3ccc(-c4scnc4C)cc3)C(C)(C)C)cn2)cc1Nc1cccc(C(=O)NC)c1OC
Activity [2]: inactive | Activity [7]: inactive | Activity [8]: inactive

CNC(=O)c1cnc(Nc2ccc(C(=O)NCCCCCCCCCC(=O)N[C@H](C(=O)N3C[C@H](O)C[C@H]3C(=O)NCc3ccc(-c4scnc4C)cc3)C(C)(C)C)cn2)cc1Nc1cccc(C(=O)NC)c1OC
DC50 [12]: 230 nM | Activity [13]: inactive | Emax [14]: 77% | Activity [2]: inactive | Activity [15]: Active | Activity [16]: Active | Activity [17]: Tde | Activity [7]: inactive | Activity [8]: inactive | Activity [9]: Active

CNC(=O)c1cnc(Nc2ccc(C(=O)NCCCCCCCCC(=O)N[C@H](C(=O)N3C[C@H](O)C[C@H]3C(=O)NCc3ccc(-c4scnc4C)cc3)C(C)(C)C)cn2)cc1Nc1cccc(C(=O)NC)c1OC
Activity [2]: inactive | Activity [7]: inactive | Activity [8]: inactive
